Assay type in all cases: cell-based, human
In assay [1] the test system is KIR2DL4. The experiment in a line: KIR2DL4 transcripts by real-time quantitative RT-PCR. As to conditions: relative to β-actin, p<0.001 for both. How it is done:
T cell purification and culture. Peripheral blood mononuclear cells (PBMC) were isolated from healthy donors by density gradient centrifugation, stimulated for 18 hours with 1 μg/mlphytohemagglutinin (PHA) (Murex, Norcross, Ga.), then treated or not with 5 μm 5-azacytidine (5-azaC, Sigma, St. Louis, Mo.) for 72 hours as described (6). Total T cells, CD4^+ T cells or CD8′ T cells then were purified using the pan T cell isolation kit II or the CD4^+ and CD8^+ T cell isolation kit II from Miltenyi (Auburn, Calif.). T cells were typically >94% CD3^+ by flow cytometry. Jurkat cells (E6-1) were maintained in culture as described (11). This protocol was approved by the University of Michigan Institutional Review Board.
Real-time quantitative RT-PCR. Total RNA was isolated using the RNeasy Mini Kit (QIAGEN, Valencia, Calif.). Primers were designed to match polymorphic positions unique to KIR2DL2 or KIR2DL4 genes as described by Uhrberg et al. (13). Controls included β-actin primers as described (14). Real-time quantitative RT-PCR was performed with a Rotor-Gene 3000 (Corbett Robotics, San Francisco, Calif.) and QuantiTect SYBR Green RT-PCR kit (QIAGEN) according to manufacturer's instructions. cDNA synthesized from T cells was used to generate standard curves for β-actin, KIR2DL2 and KIR2DL4, and each experiment was repeated at least twice.

The subject of assay [2] is Sp1. The experiment in a line: Sp1 quantitation in nuclear extracts of T cells. As to conditions: PHA-stimulated T cells, 5-azaC 72 h.
Assay [3] deals with KIR2DL4 promoter. The experiment in a line: KIR2DL4 promoter methylation, bisulfite sequencing and MS-PCR. How it is done: Bisulfite conversion and DNA sequencing. Genomic DNA was isolated from T cells using FlexiGene DNA Kits (QIAGEN) then treated with sodium bisulfite as described (15). HotStar Taq (QIAGEN) was used for amplification with the following conditions: initial incubation 95° C. 15 min, then 45 cycles 95° C. 30 s, 52° C. 30 s and 72° C. 30 s. PCR products were purified using QIAEXII Gel Extraction Kits (QIAGEN), and cloned using the pGEM-T Easy Vector System (Promega, Madison, Wis.). 10 cloned fragments were sequenced for each sample by the University of Michigan Sequencing Core.
Real-time quantitative methylation specific PCR (MSP). Three real-time MSP assays were developed for detection and quantitation of each KIR gene: one specific for the bisulfite-converted methylated sequence, one for the bisulfite-converted unmethylated sequence, and a loading control comprising primers to an adjacent bisulfite-converted sequence lacking CG pairs. MSP reactions were performed using QuantiTect SYBR Green PCR kits (QIAGEN) according to the manufacture's protocol using […] of each primer, 100 ng converted DNA and the Rotor-Gene 3000. […] Levels of amplified methylated and unmethylated fragments were standardized to the control fragment, and the methylation index calculated as […]

For assay [4], the system named is KIR2DL4 promoter. In words: KIR2DL4 promoter reporter construct assay in T cells. As for the experimental part:
Reporter construct assays. Amplified KIR promoter fragments were subcloned into the EcoRI site of the promoterless pmaxFP-Yellow-PRL vector (Amaxa GmbH). Plasmids were purified using QIAGEN EndoFree Plasmid Kits (QIAGEN), and 2 μg of DNA transfected into untreated or 5-azaC treated human T cells using the human T cell nucleofector kit (Amaxa GmbH) and the manufacturer's protocol. Controls included cotransfection with pmaxGFP (Amaxa GmbH) and transfection with the promoterless reporter vector. Fluorescence was measured by flow cytometry. Site directed mutagenesis. Mutations were introduced into the same pmaxFP-Yellow-PRL KIR2DL2 and KIR2DL4 promoter constructs using the QuickChange Multi Site-Directed Mutagenesis Kit (Stratagene, La Jolla, Calif.). The changes include a […]→[…] mutation at −78→−71 in the Sp1 site, a CCC→ACA mutation at −61→−59 in the Ets1 site, or both, in the KIR2DL2 promoter, and a TTT→GGG mutation at −73→−71 in the Ets1 site, a CCC→ACA mutation at −61→−59 in the Ets1 site, or both, in the KIR2DL4 promoter. A separate G→A mutation in the AML site was also introduced into both promoters at −98 (16; 17). The constructs were transfected in to PHA stimulated, 5-azaC treated T cells as above. Controls included transfection with pmaxGFP.
Effects of 5-azaC on KIR transcriptional activator-DNA interactions. […]

With `Nc1ncn([C@@H]2O[C@H](CO)[C@@H](O)[C@H]2O)c(=O)n1` [5-azaC, 5-azacytidine], the “KIR2DL4 mRNA in CD4+ and CD8+ T cells” value in assay [1] is listed as “increase is significant on both subsets”. Further, the “activated Sp1 levels” value in assay [2] is “increases activated Sp1 levels”. Further, the “KIR2DL4 promoter methylation pattern, bisulfite sequencing” value in assay [3] (CD4+ and CD8+ cells, 5-azaC treated vs untreated) is given as “generalized demethylation in the treated cells”. Besides, the “KIR2DL4 promoter methylation index, MS-PCR” value in assay [3] (CD4+ and CD8+ subsets, p<0.001) is reported as “demethylates these regions in all 5 subjects”. Besides, the “increase of KIR2DL4 promoter function” value in assay [4] (5-azaC treated vs untreated T cells, FIG. 29b, p<0.005) was 3-4 fold. Besides, in assay [4] (relative to untreated T cells, FIG. 29c), the “increase of expression of the unmodified KIR2DL4 construct” value is recorded as approximately 3 fold.
